Laboratory results reported in PubChem BioAssay (NCI).
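Dose response: 5 concentrations. Exposure: 48 h. Format: 96-well plates. Endpoint: linear interpolation; highest concentration if not reached. GI50 = concentration required for 50% inhibition of growth. TGI: total growth inhibition.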

What was measured:
Experiment in all cases: growth of human tumour cells (NCI), 48 h
SK-OV-3 ovarian = test system: SK-OV-3 ovarian
NCI-H226 lung = test system: NCI-H226 lung
TK-10 renal = test system: TK-10 renal
HCT-116 colon = test system: HCT-116 colon
SNB-19 CNS = test system: SNB-19 CNS
OVCAR-8 ovarian = test system: OVCAR-8 ovarian
K-562 leukemia = test system: K-562 leukemia
NCI-H23 lung = test system: NCI-H23 lung
786-0 renal = test system: 786-0 renal
HOP-62 NSCLC = test system: HOP-62 NSCLC

SMILES	GI50 (SK-OV-3 ovarian) [µM]	TGI (SK-OV-3 ovarian) [µM]	GI50 (NCI-H226 lung) [µM]	TGI (NCI-H226 lung) [µM]	GI50 (TK-10 renal) [µM]	TGI (TK-10 renal) [µM]	GI50 (HCT-116 colon) [µM]	TGI (HCT-116 colon) [µM]	GI50 (SNB-19 CNS) [µM]	TGI (SNB-19 CNS) [µM]	GI50 (OVCAR-8 ovarian) [µM]	TGI (OVCAR-8 ovarian) [µM]	GI50 (K-562 leukemia) [µM]	TGI (K-562 leukemia) [µM]	GI50 (NCI-H23 lung) [µM]	TGI (NCI-H23 lung) [µM]	GI50 (786-0 renal) [µM]	TGI (786-0 renal) [µM]	GI50 (HOP-62 NSCLC) [µM]	TGI (HOP-62 NSCLC) [µM]
COc1cc2c(=O)n(CC3CCCCC3)c3c4cc[nH]c4ncc3c2cc1OC	4.36	24.2	0.0556	17.2	4.66	18.9	1.01	12.3	5.16	19.5	5	> 50	0.187	15.8	6.66	> 50	1.31	9.25	2.54	11.2
CC(=O)OC1=C(CC(C)(C)C)C(=O)c2ccccc2C1=O	–	66.2	–	> 100	–	> 100	–	75.5	–	> 100	–	> 100	–	39.9	–	38.8	–	> 100	–	> 100
Cc1c(C2CCSc3ccccc3N2)sc2ccccc12 (stereo not given)	–	> 100	–	> 100	–	> 100	–	> 100	–	> 100	–	> 100	–	> 100	–	> 100	–	> 100	–	> 100
Cc1nc(-n2nc(-c3ccccc3)cc2-c2ccccc2)sc1C(=O)CC(=O)C(=O)Nc1ccc(O)cc1	–	> 100	–	> 100	–	> 100	–	> 100	–	> 100	–	> 100	–	> 100	–	> 100	–	> 100	–	> 100
Cc1ccc(C)c(NC(=O)C(=O)Nn2c(=S)[nH]c3ccccc3c2=O)c1	–	> 100	–	> 100	–	> 100	–	> 100	–	> 100	–	> 100	–	> 100	–	> 100	–	> 100	–	> 100
NC(=O)c1nc(-c2ccc(Cl)c(Cl)c2)nc2ccccc12	–	> 27.3	–	> 100	–	> 100	–	> 100	–	> 100	–	> 21.8	–	> 31.6	–	> 100	–	> 100	–	> 100
COC(=O)C(C)Oc1ccc(O)cc1 (stereo not given)	–	> 100	–	> 100	–	> 100	–	40.3	–	> 100	–	> 100	–	> 100	–	> 100	–	> 100	–	> 100
O=S(=O)(Nc1ccc(Cl)c(Cl)c1)c1ccc(-c2cnc(C3CC3)o2)cc1	0.713	39.7	1.82	19.5	10.3	36.1	0.458	13.9	0.534	17.1	1.23	20.1	0.28	> 38.3	1.33	19.6	0.668	18.8	0.524	16.7
N/C(CC(=O)NOC(=O)c1ccccc1)=N/OC(=O)c1ccccc1	–	97.3	–	92.5	–	> 100	–	> 100	–	> 100	–	> 100	–	71.7	–	> 100	–	> 100	–	> 100
O=C1/C(=C/c2ccc(O)cc2)Oc2ccccc21	–	> 100	–	> 100	–	> 100	–	> 100	–	> 100	–	> 100	–	> 100	–	> 100	–	> 100	–	> 100
c1ccc(-c2cc3n4c(-c5ccccc5)nn(-c5ccccc5)c4cnc-3n2)cc1	11.8	> 50	> 50	> 50	19.3	> 50	3.61	> 50	12.5	> 50	> 50	> 50	> 50	> 50	> 50	> 50	19.8	> 50	13.2	> 50
CCCCOP1(=O)CC(C)=C(Cl)C(C)(OC)C1 (stereo not given)	–	> 100	–	> 100	–	> 100	–	> 100	–	> 100	–	> 100	–	> 100	–	> 100	–	> 100	–	> 100
COc1ccc(C2C3=C(COC3=O)N(CCO)c3cc4c(cc32)CCC4)cc1 (stereo not given)	8.78	> 50	21.4	> 50	3.36	39.9	2.12	> 50	7.48	> 50	14.2	> 50	1.69	> 50	7.05	> 50	4.8	> 50	9.02	> 50
CC1/C(=N/O)CC(c2ccccc2)N(N=O)C1c1ccccc1 (stereo not given)	–	> 100	–	> 100	–	> 100	–	> 100	–	> 100	–	> 100	–	> 100	–	> 100	–	> 100	–	> 100
CC[C@@H](C(=O)[C@@H](C)[C@@H](O)[C@H](C)[C@@H]1O[C@@H]([C@@H](CC)C(=O)O)CC[C@@H]1C)[C@H]1O[C@]2(C=C[C@@H](O)[C@]3(CC[C@@](C)([C@H]4CC[C@](O)(CC)[C@H](C)O4)O3)O2)[C@H](C)C[C@@H]1C	3.6	48	2.07	19.6	0.942	17.8	0.63	30.2	0.689	5.97	1.2	29.5	0.207	5.72	0.528	11.4	1.25	19.2	1.12	16.9
CCCCCC/C(CC(=O)CCC(=O)NCCc1ccccc1)=N\Nc1ccc([N+](=O)[O-])cc1[N+](=O)[O-]	–	> 100	–	> 100	–	> 100	–	> 100	–	> 100	–	> 100	–	> 100	–	> 100	–	> 100	–	> 100
CNc1nc(-c2ccc3c(N)n[nH]c3c2)cc(N2C[C@@H](C(=O)NC3CCCCC3)CC[C@H]2C)n1	0.495	9.97	6.74	22.7	0.366	9.46	4.4	18.8	4.42	18	9.16	24.7	3.78	39	3.69	20.1	3.28	14.6	3.26	17.9
